Results: patent publication EP4268810A1 (priority 2022, dated 2023)
Read-outs that look alike come from different tables or passages of the source.

Assays:
[1] = system: SARS-CoV-2 clinical omicron isolate
[2] = system: SARS-CoV-2 clinical omicron isolate; test: microbe, parasite or virus in culture; conditions: Severe acute respiratory syndrome coronavirus 2, Calu-3

Row | SMILES | Therapeutic range: CC50/IC50, CTG ([1]; human, calu-3 cells) | Therapeutic range: CC50/IC50, IncuCyte ([1]; human, calu-3 cells) | Therapeutic range: CC50/IC50, MTT ([1]; human, calu-3 cells) | IC50 [2] | Therapeutic range: CC50/IC50, CTG ([1]; SARS-CoV-2 omicron in Calu-3 cells, CC50 by CTG) | Therapeutic range: CC50/IC50, IncuCyte ([1]; SARS-CoV-2 omicron in Calu-3 cells, CC50 by IncuCyte) | Therapeutic range: CC50/IC50, MTT ([1]; SARS-CoV-2 omicron in Calu-3 cells, CC50 by MTT)
1 | [H]/N=C(/N)N/C(=N/[H])NCCc1ccccc1 [Phenformin, phenformin] | CTG: 1674 | IncuCyte: 1111 | MTT: 1123 | 1.35 µM | – | – | –
2 | COc1[nH]c(=O)c(C(=O)C(C)CC(C)C(Cl)CCl)c(O)c1OC (centres unmarked) [Atpenin A5] | – | – | – | 0.68 µM | CTG: 1.3 | IncuCyte: > 117.6 | MTT: 1.8
